This is an account of results in PubChem BioAssay (NCI).

Some test systems named below: HT29 colon; MOLT-4 leukemia; A498 renal; SK-OV-3 ovarian; OVCAR-3 ovarian; U251 CNS; NCI-H460 lung; 786-0 renal; PC-3 prostate; RXF 393 renal.
Holding throughout (assay): NCI tumour cell line growth inhibition, 48 h

Structures are written as SMILES. Where “and” joins values, the source holds several entries; their conditions need not be identical. Identical values can stand only once.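 Five compound concentrations were applied to cells in 96-well plates for 48 hours; endpoints were derived by simple linear interpolation of the resulting dose-response curve. GI50: concentration for 50% inhibition of growth. TGI is the concentration that stops growth completely.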 Some results are limits rather than exact numbers.

For `NCCNCC(O)CO` (stereo unspecified), the TGI in the test with HT29 colon, with MOLT-4 leukemia, in the test on A498 renal, with SK-OV-3 ovarian, with OVCAR-3 ovarian and with U251 CNS was over 100 µM throughout. The TGI in the test with NCI-H460 lung, in the test with 786-0 renal, in the test with PC-3 prostate and with RXF 393 renal was over 100 µM throughout.

Regarding `COc1cc(-c2oc3c(OC)c(OC)cc(O)c3c(=O)c2OC)ccc1O`, the TGI was over 100 µM with HT29 colon; 31.5 µM with MOLT-4 leukemia; > 100 µM and 42.4 µM with A498 renal; 14.3 µM in the test on SK-OV-3 ovarian; over 50 µM in the test with OVCAR-3 ovarian; over 100 µM in the test on U251 CNS. The TGI in the test on NCI-H460 lung is over 100 µM; in the test with 786-0 renal, over 100 µM; with PC-3 prostate it was over 50 µM; in the test on RXF 393 renal, over 100 µM. Also, the GI50 with A498 renal is 3.38 µM and 16.6 µM; with U251 CNS, 5.97 µM and 12.7 µM; in the test with NCI-H460 lung, 4 µM and 8.51 µM.

Take `COC(=O)c1ccc(=O)c2nc3/c(=C/O)c(O)cc(=O)c3[nH]c12`: the GI50 with HT29 colon was 1.03 µM; in the test on MOLT-4 leukemia it was 0.562 µM; with SK-OV-3 ovarian, 2.62 µM; in the test with OVCAR-3 ovarian it was 1.04 µM; in the test with U251 CNS, 0.176 µM; with NCI-H460 lung, 0.357 µM. Besides, the results for the GI50 with 786-0 renal, in the test on PC-3 prostate and in the test on RXF 393 renal were 1.52 µM, 0.525 µM and 0.637 µM, respectively. The TGI in the test on HT29 colon is > 39.8 µM and 28.5 µM; in the test on MOLT-4 leukemia, 12.1 µM and > 60.8 µM; with A498 renal, 30.8 µM and 17.4 µM; in the test with SK-OV-3 ovarian, 16.4 µM and 20.8 µM; in the test on OVCAR-3 ovarian, 25.7 µM and 15 µM; in the test on U251 CNS it was 28.6 µM and 12.3 µM. Further, the TGI in the test on NCI-H460 lung is 23.8 µM and 19.7 µM; with 786-0 renal, 23.8 µM and 17.9 µM; with PC-3 prostate, 17.1 µM and 16.6 µM; in the test with RXF 393 renal it was 43.3 µM and 17.1 µM.

For the molecule `Nc1ccc(C#Cc2cncnc2Nc2ccc(OCc3cccc(F)c3)c(Cl)c2)cc1`, the GI50 is 10.1 µM with HT29 colon; 19.5 µM with MOLT-4 leukemia; 1.7 µM with A498 renal; 8.88 µM with SK-OV-3 ovarian; 8.87 µM in the test on OVCAR-3 ovarian; over 14 µM with U251 CNS. Further, the GI50 in the test with NCI-H460 lung is 15.7 µM; in the test with 786-0 renal, 17.4 µM; in the test on PC-3 prostate, 8.91 µM; with RXF 393 renal it was 5 µM. Further, the TGI with HT29 colon was over 25 µM; in the test on MOLT-4 leukemia, over 25 µM; in the test with A498 renal, over 15.4 µM; in the test on SK-OV-3 ovarian, over 25 µM; with OVCAR-3 ovarian, over 25 µM; in the test on U251 CNS, over 25 µM. Further, the TGI in the test on NCI-H460 lung, in the test on 786-0 renal, in the test with PC-3 prostate and in the test on RXF 393 renal was over 25 µM throughout.

As to `C=C(CN1CCN(c2cccc(C(F)(F)F)c2)CC1)c1ccc(C(=O)Nc2ccccc2N)cc1`, the GI50 was 1.46 µM in the test with HT29 colon; 0.13 µM in the test on MOLT-4 leukemia; 0.005 µM in the test on A498 renal; 0.545 µM in the test with OVCAR-3 ovarian; 1.18 µM in the test on U251 CNS; 1.56 µM in the test on NCI-H460 lung. In addition, the figures for the GI50 in the test with 786-0 renal, with PC-3 prostate and in the test with RXF 393 renal were 1.1 µM, 0.615 µM and 1.62 µM, respectively. For the same molecule, the TGI is over 50 µM with HT29 colon; 1.29 µM in the test on MOLT-4 leukemia; 5.18 µM in the test with A498 renal; 6.2 µM with OVCAR-3 ovarian; 5.84 µM in the test with U251 CNS; over 24.8 µM in the test with NCI-H460 lung. Also, the TGI is 8.96 µM in the test with 786-0 renal and over 50 µM in the test on PC-3 prostate.

As for `CCCCn1c2c(c3ccccc3c1=O)C(=O)c1ccccc1-2`, the TGI in the test with HT29 colon, in the test on A498 renal, in the test with SK-OV-3 ovarian, in the test with OVCAR-3 ovarian, in the test with U251 CNS and in the test with 786-0 renal was over 100 µM in each case. Also, in the test on PC-3 prostate, the TGI was over 100 µM.

With `C=C1C(=O)O[C@H]2[C@H]1CC/C(COC(=O)C(=O)c1c[nH]c3ccc(OC)cc13)=C\CC[C@@]1(C)O[C@@H]21`, the GI50 in the test with HT29 colon is 2.65 µM; in the test with MOLT-4 leukemia, 5.31 µM; with SK-OV-3 ovarian, 19.8 µM; in the test with OVCAR-3 ovarian it was 1.87 µM; with U251 CNS, 7.06 µM; in the test on NCI-H460 lung, 10.2 µM. The GI50 in the test with 786-0 renal was 5.37 µM; in the test on PC-3 prostate, 6.08 µM; in the test with RXF 393 renal, 3.21 µM. The TGI in the test with HT29 colon came to 6.35 µM; with MOLT-4 leukemia, 16 µM; in the test on SK-OV-3 ovarian, 35.1 µM; in the test with OVCAR-3 ovarian it was 3.42 µM; in the test with U251 CNS, 10.8 µM; in the test on NCI-H460 lung, 24.8 µM. Also, the TGI worked out at 9.91 µM with 786-0 renal, 11.1 µM with PC-3 prostate and 6.84 µM in the test with RXF 393 renal.

For the molecule `COc1cc2c3c(n(CCCN4CCN(C)CC4)c(=O)c2cc1OC)-c1cc2c(cc1C3=O)OCO2`, the GI50 with HT29 colon was 16.9 µM; in the test on SK-OV-3 ovarian it was 12.3 µM; in the test on OVCAR-3 ovarian, 15.3 µM; with U251 CNS, 11.4 µM; with NCI-H460 lung it was 5.8 µM; in the test on 786-0 renal, 12.9 µM. For the same molecule, the GI50 is 15.8 µM in the test with PC-3 prostate and 20.5 µM in the test on RXF 393 renal. The TGI in the test on HT29 colon was over 100 µM; in the test with MOLT-4 leukemia, 0.0353 µM; with SK-OV-3 ovarian it was 34 µM; with OVCAR-3 ovarian, 30.1 µM; in the test on U251 CNS, 27.5 µM; in the test on NCI-H460 lung, 28.2 µM. The TGI in the test with 786-0 renal came to 25.5 µM; in the test on PC-3 prostate it was 36.4 µM; in the test with RXF 393 renal, 55 µM.

In the case of `COc1cc2c3c(n(CCN)c(=O)c2cc1OC)-c1cc2c(cc1C3=O)OCO2`, the GI50 in the test on MOLT-4 leukemia was 0.084 µM; with A498 renal it was 3.48 µM; in the test on SK-OV-3 ovarian it was 2.57 µM; in the test with U251 CNS, 0.367 µM; in the test with NCI-H460 lung it was under 0.01 µM; with 786-0 renal, 0.14 µM. Also, the GI50 is 0.671 µM in the test with PC-3 prostate and 1.54 µM in the test with RXF 393 renal. Moreover, the TGI in the test on MOLT-4 leukemia is over 100 µM; in the test on A498 renal, 18.9 µM; with SK-OV-3 ovarian it was over 100 µM; in the test on NCI-H460 lung, 3.24 µM; in the test with 786-0 renal it was 0.502 µM; with PC-3 prostate it was 2.89 µM. Besides, in the test with RXF 393 renal, the TGI worked out at 4.06 µM.
